Assay results published in US8748435B2, “Pyrazolo pyrimidine derivatives” (Novartis AG, priority 2011, dated 2014).

Assays:
Human H3 = Human H3 (Homo sapiens (Human), UniProt Q9Y5N1); assay: Human H3 binding assay (SPA, [3H]-R-alpha-Methylhistamine); conditions: 3 nM [3H]-R-alpha-Methylhistamine
human GPR4 [1] = biological target: T1, human GPR4 (Homo sapiens (Human), UniProt P46093); assay: Human GPR4 binding assay with additional human serum albumin (4% HSA); conditions: binding assay with 4% HSA
T1 sequence (P46093 whole entry): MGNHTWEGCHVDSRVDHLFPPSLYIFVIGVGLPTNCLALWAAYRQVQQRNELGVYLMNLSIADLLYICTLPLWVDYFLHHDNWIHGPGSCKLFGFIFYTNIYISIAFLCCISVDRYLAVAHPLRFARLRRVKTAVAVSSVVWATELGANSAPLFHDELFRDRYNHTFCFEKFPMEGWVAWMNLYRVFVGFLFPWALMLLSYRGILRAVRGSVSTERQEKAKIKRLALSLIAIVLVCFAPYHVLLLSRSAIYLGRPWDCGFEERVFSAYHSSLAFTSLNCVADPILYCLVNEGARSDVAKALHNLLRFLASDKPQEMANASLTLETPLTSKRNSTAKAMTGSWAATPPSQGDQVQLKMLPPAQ
Method: Cells were grown in T175 flasks to a density of about 1×10^6 cells/mL in growth medium. The cells were harvested by centrifugation (3000 rpm for 30 minutes at 4° C.) and the pellet resuspended in ice cold buffer A (20 mM HEPES pH 7.8, 10 mM EDTA, 100 mM NaCl, 1 tab/40 mL protease inhibitor complete). […] The homogenate was centrifuged at 18000 rpm for 50 min at 4° C. and the membrane protein pellet resuspended in cold buffer A using the Polytron (2×20 seconds). The protein concentration is determined using the Bio Rad Protein Assay and human IgG as standard. The volume of the membrane protein suspension is adjusted to a final concentration of about 2 mg protein/mL. The suspension is then once again homogenized (Polytron) on ice at 25000 rpm for 20 seconds before being aliquoted and stored at −80° C.
Radio Ligand Binding Assay: Serial dilutions of compounds (stock in 10 mM DMSO) are prepared by first diluting the compounds in DMSO followed by a 1:50 dilution into assay buffer (10 mM HEPES, pH 8.0, 100 mM NaCl, 5 mM MgCl2, 1 mM CaCl2, 0.5% fatty acid-free BSA, 0.05% Tween-20). […] The desired amount of membranes (20 μg/well) is diluted with assay buffer. […] 100 μL of the membrane-suspension is added and the plate stirred for 60 minutes. […] The filter plate is washed 5 times with ice-cold wash buffer, dried and sealed at the bottom. Then 20 μL of Microscint 40 is added into each well and the top of the plate is sealed. Finally the plate is counted for 2 min/well in a TopCount NXT instrument (Packard Instruments). The data are analyzed using the GraphPad Prism™ software.
In a similar manner, a binding assay with additional human serum albumin (4% HSA) has been established.

human GPR4 [2] = biological target: T1, human GPR4; assay: Cell-based assay for human GPR4 activity (pH-induced cAMP formation, HTRF, HeLa cells); conditions: HeLa cells stably expressing human GPR4, pH-induced cAMP
human GPR4 [3] = biological target: T1, human GPR4; assay: Human GPR4 binding assay ([3H]4 radioligand, membranes of 300.19 cells expressing human GPR4); conditions: radioligand [3H]4 (example 39), membranes of 300.19 cells expressing human GPR4
[4] = tested on: VEGF-induced angiogenesis; assay: GPR4 activity in VEGF-induced angiogenesis in mice (growth factor implant model); format: in vivo; conditions: po 30 mg/kg bid, day 4 after chamber implantation
Method: d) GPR4 Activity in VEGF-Induced Angiogenesis in Mice
The functional activity of GPR4 was determined in the angiogenesis growth factor implant model. Porous tissue chambers made of perfluoro-alkoxy-Teflon were filled with 0.8% agar and 20 U/ml heparin supplemented with or without 8 μg/ml recombinant human VEGF. The solutions were maintained at 39° C. prior to the filling procedure. Mice were anesthetized using 3% isoflurane inhalation. For subcutaneous implantation, a small skin incision was made at the base of the tail to allow the insertion of an implant trocar. The chamber was implanted under aseptic conditions through the small incision onto the back of the animal. The skin incision was closed by wound clips. The compounds were applied po at 30 mg/kg bid starting at the day of the chamber implantation.
On the 4th day after implantation, animals were sacrificed using CO2. Chambers were excised and the vascularized fibrous tissue formed around each implant carefully removed and weighed and expressed as Δ tissue weight % [((compound/VEGF)−(no compound/no VEGF))/((no compound/VEGF)−no compound/no VEGF))×100]. Body weight was used to monitor the general condition of the mice.

mouse GPR4 = mouse GPR4 (Mus musculus (Mouse), UniProt Q8BUD0); assay: Mouse GPR4 cAMP assay; format: cell-based
Sequence of mouse GPR4 (Q8BUD0 whole entry): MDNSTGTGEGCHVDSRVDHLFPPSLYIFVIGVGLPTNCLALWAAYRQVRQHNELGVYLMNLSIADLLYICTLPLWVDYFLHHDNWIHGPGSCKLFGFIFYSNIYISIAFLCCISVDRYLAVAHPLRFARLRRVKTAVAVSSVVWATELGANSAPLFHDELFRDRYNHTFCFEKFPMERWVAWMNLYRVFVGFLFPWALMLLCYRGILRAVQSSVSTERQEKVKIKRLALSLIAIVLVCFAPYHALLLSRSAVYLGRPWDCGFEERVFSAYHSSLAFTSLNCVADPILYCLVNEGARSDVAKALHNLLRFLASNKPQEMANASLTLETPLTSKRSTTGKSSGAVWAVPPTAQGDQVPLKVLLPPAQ

rat GPR4 = rat GPR4 (Rattus norvegicus (Rat), UniProt Q4KLH9); assay: Rat GPR4 cAMP assay; format: cell-based; conditions: read-out: r cAMP IC50
Sequence of rat GPR4 (Q4KLH9 whole entry): as the sequence (Q8BUD0 whole entry) above, with G8W, H51R, S339T counted along it

CFA-induced hyperalgesia = assay: Established rat hyperalgesia model (CFA); format: in vivo; conditions: gavage
Method: f) Established Rat Hyperalgesia Model
Naïve withdrawal thresholds of both hind paws were determined by using an increasing pressure stimulus placed onto the dorsal surface of each paw using an analgesymeter. Delayed inflammatory pain was then induced by intra-plantar injection of 25 μl of complete Freund's adjuvant (CFA) into one hindpaw with the contralateral paw acting as the control. […] One hour later, paw withdrawal thresholds were re-measured on both the ipsilateral (CFA-injected) and contralateral (uninjected) paw; measurements were repeated at 3 hrs and 6 hrs post dosing. The reversal of hyperalgesia was calculated using the following formula: Reversal (%)=100×(postdose ipsilateral threshold−predose ipsilateral threshold) (naïve ipsilateral threshold−predose ipsilateral threshold).

[5] = tested on: antigen-induced arthritis (knee swelling); assay: Rat antigen-induced arthritis model; format: in vivo; conditions: oral gavage, AUC of R/L knee swelling ratio vs control
Method: e) GPR4 Activity in Rat Antigen-induced Arthritis Model Female Lewis rats were sensitised intradermally on the back at two sites to methylated bovine serum albumin (mBSA) homogenised 1:1 with complete Freund's adjuvant on days −21 and −14 (0.1 ml containing 1 mg/ml mBSA). On day 0, the right knee received […] of 10 mg/ml mBSA in 5% glucose solution (antigen injected knee), while the left knee received […] of 5% glucose solution alone (vehicle injected knee). The diameters of the left and right knees were then measured using calipers immediately after the intra-articular injections and again on days 2, 4 and 7. The compounds of the invention were administered twice daily by oral gavage; vehicle (saline) at 5 ml/kg, and dexamethasone at 0.3 mg/kg was given as a control. Right knee swelling was calculated as a ratio of left knee swelling, and the R/L knee swelling ratio plotted against time to give Area Under the Curve (AUC) graphs for control and treatment groups. The percentage inhibition of the individual treatment group AUCs were calculated vs the control group AUC (0% inhibition).

Sequence of Human H3 (Q9Y5N1 whole entry): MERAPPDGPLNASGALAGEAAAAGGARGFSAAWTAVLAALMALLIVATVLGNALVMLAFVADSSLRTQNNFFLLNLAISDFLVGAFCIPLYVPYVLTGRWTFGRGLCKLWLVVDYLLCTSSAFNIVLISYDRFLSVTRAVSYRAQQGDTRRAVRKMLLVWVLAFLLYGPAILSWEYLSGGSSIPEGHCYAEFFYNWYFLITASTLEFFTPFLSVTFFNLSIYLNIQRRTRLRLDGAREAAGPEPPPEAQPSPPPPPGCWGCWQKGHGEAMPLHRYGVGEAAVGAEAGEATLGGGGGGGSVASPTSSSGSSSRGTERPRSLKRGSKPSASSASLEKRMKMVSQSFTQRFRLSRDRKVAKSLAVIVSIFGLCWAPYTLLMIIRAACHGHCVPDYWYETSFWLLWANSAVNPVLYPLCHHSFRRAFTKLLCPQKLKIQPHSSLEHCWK

For CCc1nn2c(C)cc(C)nc2c1Cc1ccc(/C=C/CN2CCN[C@@H](C)C2)cc1 [Example 9, 2-Ethyl-5,7-dimethyl-3-{4-[(E)-3-((S)-3-methyl-piperazin-1-yl)-propenyl]-benzyl}-pyrazolo[1,5-a]pyrimidine], the IC50 (Human H3) was 18000 nM, the IC50 (human GPR4 [1]) was 6 nM and the IC50 (human GPR4 [2]) was 59 nM. For the same compound, the IC50 (human GPR4 [3]) was 19 nM, the Δ tissue weight [4] was 44% and the IC50 (mouse GPR4) was 890 nM. It also gave an IC50 (rat GPR4) of 1440 nM.
In the case of CCc1nn2c(C)cc(C)nc2c1Cc1ccc(-c2nnc(C3CCNCC3)o2)cc1 [Example 35, 2-Ethyl-5,7-dimethyl-3-[4-(5-piperidin-4-yl-[,3,4]oxadiazol-2-yl)-benzyl]-pyrazolo[1,5-a]pyrimidine], the “% reversal of hyperalgesia” value (CFA-induced hyperalgesia; 3 mg/kg, 1 h) is reported as 36%, the “% reversal of hyperalgesia” value (CFA-induced hyperalgesia; 3 mg/kg, 3 h) is reported as 25% and the “% reversal of hyperalgesia” value (CFA-induced hyperalgesia; 3 mg/kg, 6 h) is reported as 5%. The “% reversal of hyperalgesia” value (CFA-induced hyperalgesia; 10 mg/kg, 1 h) was 43%, the “% reversal of hyperalgesia” value (CFA-induced hyperalgesia; 10 mg/kg, 3 h) was 36% and the “% reversal of hyperalgesia” value (CFA-induced hyperalgesia; 10 mg/kg, 6 h) was 15%. The “% reversal of hyperalgesia” value (CFA-induced hyperalgesia; 30 mg/kg, 1 h) was 62%, the “% reversal of hyperalgesia” value (CFA-induced hyperalgesia; 30 mg/kg, 3 h) was 47% and the “% reversal of hyperalgesia” value (CFA-induced hyperalgesia; 30 mg/kg, 6 h) was 25%. The Δ tissue weight [4] was 49%, the Inhibition of swelling ([5]; 30 mg/kg bid) was 26% and the Inhibition of swelling ([5]; 60 mg/kg bid) was 34%. It also gave an Inhibition of swelling ([5]; 90 mg/kg bid) of 40%.
